In assay [1] the test system is Alternaria alternata. The experiment in a line: Antifungal activity against boscalid-resistant Alternaria alternata expressing AaSDHD H133R mutant assessed as inhibition of mycelial growth at 10 ppm relative to untreated control. It is filed as functional.
In assay [2] the test system is Alternaria alternata. The experiment in a line: Antifungal activity against boscalid-resistant Alternaria alternata expressing AaSDHC H134R mutant assessed as inhibition of mycelial growth at 10 ppm relative to untreated control. The format is functional.
In assay [3] the test system is Alternaria alternata. The experiment in a line: Antifungal activity against boscalid-resistant Alternaria alternata expressing AaSDHB H277Y mutant assessed as inhibition of mycelial growth at 10 ppm relative to untreated control. It is filed as functional.
Assay [4] relates to Alternaria alternata. The experiment in a line: Antifungal activity against wild type Alternaria alternata assessed as inhibition of mycelial growth at 10 ppm relative to untreated control. It is filed as functional.
Assay [5] relates to Alternaria alternata. The experiment in a line: Antifungal activity against boscalid-resistant Alternaria alternata isolate Aa122 expressing AaSDHC H134R mutant. It is filed as functional, organism-based.
For assay [6], the system named is Alternaria alternata. In words: Antifungal activity against boscalid-resistant Alternaria alternata isolate Aa111 expressing AaSDHB H277Y mutant. The format is functional, organism-based.
Assay [7] concerns Alternaria alternata. The experiment in a line: Antifungal activity against boscalid-resistant Alternaria alternata isolate Aa29 expressing AaSDHB H277Y mutant. The format is functional, organism-based.
In assay [8] the test system is Alternaria alternata. In words: Antifungal activity against wild type Alternaria alternata isolate Aa16. It is filed as functional, organism-based.
Assay [9] has as its system Botrytis cinerea. The experiment in a line: Antifungal activity against resistant Botryotinia fuckeliana isolates obtained from excessive treatment with Signum. It is filed as functional, organism-based.

For the molecule `CC(C)CC(C)c1sccc1NC(=O)c1cn(C)nc1C(F)(F)F` (racemic) [PENTHIOPYRAD], the inhibition (in general, the change of the read-out against control, counted positive when it falls) at 10 ppm in [1] is 88.7%; in [2], 85.1%; in [3] it was 90.5%; in [4], 89.7%.

For the molecule `O=C(Nc1ccccc1-c1ccc(Cl)cc1)c1cccnc1Cl` [BOSCALID], the EC50 in assay [5] is listed as above 50 ppm; in assay [6], above 50 ppm; in assay [7] it was above 50 ppm; in assay [8], 0.5 ppm; in assay [9], above 100 ppm. Moreover, the inhibition at 10 ppm was 47.5% in assay [1], 31.9% in assay [2], 30.7% in [3] and 87.2% in assay [4].

On to `O=C(NCCc1ncc(C(F)(F)F)cc1Cl)c1ccccc1C(F)(F)F` [FLUOPYRAM], for which the EC50 was 5 ppm in assay [5], 0.25 ppm in assay [6], 0.25 ppm in assay [7] and below 0.25 ppm in assay [8]. Moreover, the inhibition at 10 ppm in assay [1] was found to be 16.9%; in assay [2], 11.3%; in assay [3] it was 41.3%; in assay [4], 83%.

(Values after ChEMBL document CHEMBL3044920, “Progress in understanding molecular mechanisms and evolution of resistance to succinate dehydrogenase inhibiting (SDHI) fungicides in phytopathogenic fungi” (Crop Prot, 2010).)
